This experiment concerns primary sympathetic neurons. Kind of experiment: NGF withdrawal assay, neuronal survival quantitated by MTT assay. It is filed as cell-based. The following applies: protein expressed by recombinant adenovirus infection, NGF withdrawn. Here is the method: One experimental system which can be used to assay for changes in death marker proteins in neurons undergoing cell death employs primary sympathetic neurons that are cultured for 3-5 days in nerve growth factor (NGF) to maintain their survival, after which time NGF is withdrawn to induce apoptosis. Death of the neuron occurs within 48 hours and requires transcription. […] Prior to the commitment point, the neurons can be rescued by re-supplying them with NGF; subsequent to the commitment point, the neurons can no longer be rescued, and are committed to die. As a part of the invention, we have shown that death due to NGF withdrawal in this assay is an apoptotic event (see Example V, below).
To confirm that primary sympathetic neurons die by apoptotic cell death, neurons were infected with a recombinant adenovirus expressing E1B55K, an adenoviral protein known to inhibit apoptosis by inhibiting p53. After adenovirus infection, NGF was withdrawn, and neuronal survival was then quantitated by MTT assay, as in Slack et al. supra.
In general terms: Tetrazolium dyes change colour on reduction, which living cells bring about.

Consider two substances from patent publication US20020009747A1, “METHODS AND REAGENTS FOR IDENTIFYING MODULATORS OF NEURONAL APOPTOSIS” (priority 1997, published 2002).

“Also recorded” adds a separate entry of the source.

Regarding “Bcl2: a protein that can inhibit apoptosis”, the “neuronal survival / death after NGF withdrawal” value is reported as “inhibits cell death in NGF-deprived neurons”.

“E1B55K: adenoviral protein known to inhibit apoptosis by inhibiting p53, expressed from a recombinant adenovirus”: the “neuronal survival / death after NGF withdrawal” value is listed as “inhibits death in NGF-deprived neurons; also recorded: rescue of sympathetic neuron apoptosis”.
